Measurements reported in patent US20250360130A1, “METHODS OF TREATING INDOLENT SYSTEMIC MASTOCYTOSIS” (Telios Pharma Inc., priority 2024, published 2025).

Key:
[1] = system: basophils; assay: Comparison of BTK inhibitors by BAT (CD63, CD203c); type: cell-based, human; settings: concentration of 1 μM, 2 hours, blood from a healthy donor
Description: The BAT assay using the Flow Cast Basophil Activation Kit (Buhlmann Diagnostics; Catalog #B-CCR-STCON) was then conducted following manufacturer instructions by (1) stimulating the blood with anti-FcεR stimulation control in stimulation buffer with IL-3 and staining cells for CCR3 and CD63 for 15 minutes at 37° C., (2) lysing red blood cells and fixing cells with Lysing Reagent at room temperature for 10 minutes, (3) washing cells with Wash Buffer, and (4) acquiring data on a flow cytometer. Activated basophils were defined as CCR3+, low side scatter and CD63+. Percent of activated basophils was calculated as number of activated basophils over the total number of basophils. A four-parameter logistic regression was applied to determine the EC50 and EC90.
Blood samples were gently rocked at room temperature for 2 hours. […] Activated basophils were also defined as CCR3+, low side scatter and CD203c+.

[2] = system: mast cells; assay: Phosphorylation and degranulation of antigen-stimulated mast cells grown with chronic SCF (FIG. 21); type: cell-based; settings: 1 μM, antigen 15 minutes
Description: Histamine release, CD63 expression, CD203c expression, pBTK (Y223) levels, pP38 (T180/Y182) levels, pPLCg1 (S1248) levels, pERK (T202/Y204) levels, and pS6 (S235/236) levels are shown. Mast cells were grown with continuous (chronic) exposure to SCF and then stimulated with antigen (Ag) for 15 minutes, leading to phosphorylation of multiple kinases, including pBTK, […], pP38, pERK, and pS6 ribosome. This stimulation increases degranulation markers, including CD63, CD203c, and histamine release.

[3] = system: ISM patients; settings: cited from earlier work
[4] = system: subjects with AdvSM and ISM; settings: cited from earlier work
[5] = system: humans; settings: cited from earlier work

## CC#CC(=O)N1CCC[C@H]1c1nc(-c2ccc(C(=O)Nc3ccccn3)cc2)c2c(N)nccn12 [acalabrutinib, Acalabrutinib ((S)-4-(8-amino-3-(1-(but-2-ynoyl)pyrrolidin-2-yl)imidazo[1,5-a]pyrazin-1-yl)-N-(pyridin-2-yl)benzamide), reference compound]
[1]
  basophil activation (CD63+, CD203c+): no effect on basophil activation

## Cn1cc(-c2cc3c(N4CCN(c5ncc([C@@](C)(N)c6ccc(F)cc6)cn5)CC4)ncnn3c2)cn1 [avapritinib]
[2]
  activation (phosphorylation and degranulation) of mast cells: only partially inhibits activation
[3]; 25 mg QD, week 24, ISM patients
  reduction of total symptom score compared to the placebo: 5.7 points
[3]; 25 mg QD
  ISM patients with dose interruptions due to adverse reactions: 5%
[3]; ISM patients, first 6 months of treatment
  treated subjects who failed to achieve a mean symptom score reduction of 30%: approximately half
[3]; ISM patients, within the first 6 months of treatment
  subjects who achieved a 50% symptom score reduction: about a third

## Cc1nc(Nc2ncc(C(=O)Nc3c(C)cccc3Cl)s2)cc(N2CCN(CCO)CC2)n1 [dasatinib]
[4]; 15 subjects with AdvSM and 18 subjects with ISM, overall
  subjects who discontinued treatment due to toxicity: 34%
[4]; overall study population
  pleural effusion, grade 3 adverse event, patients overall: 10%

## C=CC(=O)N1CCC[C@@H](n2nc(-c3ccc(Oc4ccccc4)cc3)c3c(N)ncnc32)C1 [ibrutinib, Ibrutinib (1-[(3R)-3-[4-amino-3-(4-phenoxyphenyl)pyrazolo[3,4-d]pyrimidin-1-yl]piperidin-1-yl]prop-2-en-1-one)]
[5]
  adverse events associated with administration: heightened risk of atrial fibrillation, hypertension, major bleeding events, and cytopenias
